pEC50: −log10 of the molar value.
Experiments:
HBV [1] = experiment: Anti-HBV activity on the hepatitis B virus mouse model (AAV-HBV); format: in vivo, C57BL/6 mice; conditions: 1 mg/kg, PO, QD
Method: The AAV vector-mediated HBV infected mouse model is a fast and efficient HBV model. Using the high hepatotropism of the AAV vector, the recombinant adeno-associated type 8 virus carrying 1.3 copies of the HBV genome (rAAV8-1.3HBV) is injected into the tail vein of mice, which can efficiently introduce the carried 1.3 copy HBV genome into hepatocytes. Due to the characteristics of the AAV viral vector, the vector mediated by it can express for a long time. The AAV/HBV model can continuously replicate HBV DNA and express HBsAg and HBeAg in the liver of the mice.
The anti-HBV efficacy of the test compound in vivo was evaluated by determining the content of HBsAg in the serum of the mice after treatment with the test compound on AAV/HBV mouse mode.
C57BL/6 mice, 10% HP-f-CD as vehicle, reference compound TDF (Tenofovir), test compound, recombinant virus rAAVS-1.3HBV, main reagents of the experiment including QIAamp96 DNA kit and TaqMan® Universal PCR Master Mix, Hepatitis B Virus Surface Antigen Detection Kit, instruments including: centrifuge (Beckman Allegra X-15R), tissue grinder (QIAGEN-Tissue lyser II) and spectrophotometer (Thermo-NANODROP 1000).
a) All mice were orally administered on the 28th day after the virus injection, and the day was set as day 0. Submaxillary blood of all mice was collected for serum collection before administration. The mice were administered once a day for four weeks.
b) Submaxillary blood of all mice was collected for serum collection twice a week, the volume of the blood collected each time was approximately 100 μL.
c) On the 28th day, all mice were euthanized and the blood was collected from the heart for serum collection.
The content of HBsAg in the serum of the mice was determined by ELISA. The experimental procedure refers to the specification of HBsAg ELISA kit.
a) The anti-HBV activity of the test compound on AAV/HBV mice model was evaluated by determining the content of HBsAg in the plasma of the mice.

HBV-DNA = experiment: HBV DNA content in HepG2.2.15 cells culture supernatant by real time-qPCR; format: cell-based; conditions: supernatant on the 8th day
Method: (§1) 2.1 Cell Line: HepG2.2.15 Cells
3.6 15 μL of the reaction mixture was added into each well of a 96-well PCR plate, followed by addition of 10 μL of sample DNA or HBV DNA standards into each well.
3.7 PCR reaction conditions: heating at 95° C. for 10 minutes, then denaturation at 95° C. for 15 seconds, extension at 60° C. for 1 minute, a total of 40 cycles.

HBsAg = conditions: read-out: HBsAg EC50; HepG2.2.15 cells, supernatant on the 8th day
Method: The HBV DNA content in HepG2.2.15 cells culture supernatant was determined by real-time quantitative qPCR assay (real time-qPCR), and the HBV surface antigen content was determined by enzyme linked immunosorbent assay (ELISA). The inhibitory effect of the compound on HBV was evaluated by the EC50 value of the compound.
as §1
3.1 HepG2.2.15 cells (4×10^4 cells/well) were seeded into a 96-well plate and incubated overnight at 37° C. under 5% CO2.
3.2 On the 2nd day, the compound was diluted into 8 concentrations with 3-fold gradient. The compounds with different concentrations were added into the culture wells in duplicate wells. The final concentration of DMSO in the culture medium was 0.5%, 10 μM ETV was used as a 100%/inhibition control, and 0.5% DMSO was used as a 0% inhibition control.
3.3 On the 5th day, the culture medium was replaced with a fresh medium containing the compound.
3.4 On the 8th day, the culture medium in the culture well was collected, and a part of the sample was taken for ELISA to determine the content of hepatitis B virus S antigen, a part of the sample was taken to extract DNA with a high-throughput DNA purification kit (Qiagen-51162).
3.8 Determination of hepatitis B virus S antigen content by ELISA
50 μL of sample and standard sample were taken and added into a reaction plate respectively, followed by addition of 50 μL of enzyme conjugate into each well, the mixture was shaken and well-mixed, and placed in a bath at 37° C. for 60 minutes. The plate was then washed with washing solution 5 times, followed by addition of 50 μL of illuminating substrate into each well, the mixture was well-mixed and allowed to react at room temperature for 10 minutes in the dark. Chemiluminescence intensity was determined by a ELISA.
Calculation of the percentage of inhibition:% Inh.=(1−value of sample/value of DMSO control)×100
Calculation of EC50: The 50% inhibitory concentration (EC50) value of the compound on HBV was calculated by GraphPad Prism software.

HBV [2] = experiment: In vivo pharmacodynamic study of hydrodynamic injection mouse HBV model (HDI-HBV) via tail vein; parameters: species or system Balb/c mice; conditions: mouse plasma
Method: Anti-hepatitis B virus activity of the compound of the embodiment in vivo was evaluated by HDI mice model.
Balb/c mice, 10% HP—F-CD as vehicle, test compound, RG7834, ETV (Entecavir), pAAV2-HBV 1.3mer plasmid (extracted with Qiagen EndoFree Plasmid Giga kit), main reagents including QIAamp96 DNA kit and FasStart Universal Probe Mast (ROX). The main instruments used in this experiment included centrifuge (Beckman Allegra X-15R), tissue grinder (QIAGEN-Tissue lyser II) and spectrophotometer (Thermo-NANODROP 1000).
b) On day 0, all mice were subjected to hydrodynamic injection with HBV plasmid DNA solution via tail vein. The plasmid DNA was pre-treated with sterile physiological saline before injection and stored at 4° C. until use. Plasmid DNA solution was injected via the tail vein at a dose of 8% of the body weight of the mouse within 5 seconds.
c) On the 1st day to the 7th day, the mice were administered with the compound or solvent by oral gavage for 7 days.
d) On the 1st day, 3rd day and 5th day, the blood was collected from the submandibular vein of the mice, and heparin sodium was used as an anticoagulant. The blood sample was centrifuged at 7,000×g, 4° C. to prepare the plasma for the determination of HBV DNA.
e) On the 7^h day, all mice were euthanized by CO2. The blood was collected from the heart to prepare plasma, and the liver tissue was collected. Two left hepatic lobe were isolated, the size of which was 70-100 mg, and were frozen by liquid nitrogen immediately after collection. One of the hepatic lobe was used for HBV DNA detection, and the other was used for backup.
The content of HBsAg in the serum of the mice was determined by ELISA (enzyme linked immunosorbent assay). The experimental procedure refers to the specification of HBsAg ELISA kit.
The inhibitory activity of the test compound on HBV replication on the mouse HDI model was determined by measuring the content of HBsAg in the plasma of the mice.

Compound | pEC50 (HBV-DNA) | pEC50 (HBsAg) | other results
CC(C)OC(=O)OCOP(=O)(CO[C@H](C)Cn1cnc2c(N)ncnc21)OCOC(=O)OC(C)C.O=C(O)/C=C/C(=O)O [TDF, reference compound] |  |  | HBsAg content in the plasma of the mice (HBV [1]; day 4): 4.56 IU/mL; HBsAg content in the plasma of the mice (HBV [1]; day 7): 4.59 IU/mL; HBsAg content in the plasma of the mice (HBV [1]; day 11): 4.66 IU/mL; HBsAg content in the plasma of the mice (HBV [1]; day 14): 4.50 IU/mL; HBsAg content in the plasma of the mice (HBV [1]; day 18): 4.61 IU/mL; HBsAg content in the plasma of the mice (HBV [1]; day 21): 4.52 IU/mL; HBsAg content in the plasma of the mice (HBV [1]; day 25): 4.33 IU/mL; HBsAg content in the plasma of the mice (HBV [1]; day 28): 4.34 IU/mL; HBsAg content in the plasma of the mice (HBV [1]; day −1): 4.59 IU/mL
COCCCOc1cc2c(cc1C#N)-c1cc(=O)c(C(=O)O)cn1[C@H](C(C)C)CO2 [Embodiment 26] | 8.66 | 8.48 | 
COCCCOc1cc2c(cc1C(C)=O)-c1cc(=O)c(C(=O)O)cn1[C@H](C(C)C)CO2 [Embodiment 29] | 9.29 | 8.87 | 
CNC(=O)OCCCOc1cc2c(cc1Cl)-c1cc(=O)c(C(=O)O)cn1[C@H](C(C)C)CO2 [Embodiment 11] | 7.85 | 7.81 | 
COCCCOc1cc2c(cc1Cl)-c1cc(=O)c(C(=O)O)cn1[C@H](C(C)(C)C)CO2 [Embodiment 24] | 9.34 | 9.13 | 
CSCCOc1cc2c(cc1Cl)-c1cc(=O)c(C(=O)O)cn1[C@H](C(C)C)CO2 [Embodiment 8] | 7.65 | 7.74 | 
COCCCOc1cc2c(cc1Br)-c1cc(=O)c(C(=O)O)cn1[C@H](C(C)(C)C)CO2 [Embodiment 25] | > 9.34 | 9.11 | 
COCCCOc1cc2c(cc1C1CC1)-c1cc(=O)c(C(=O)O)cn1[C@H](C(C)(C)C)CO2 [Embodiment 28] | 9.29 | 9.14 | 
CC(C)[C@@H]1COc2cc(OCCCSCC(=O)O)c(Cl)cc2-c2cc(=O)c(C(=O)O)cn21 [Embodiment 9] | 7.79 | 7.65 | 
CCN(CC)C(=O)CCCOc1cc2c(cc1Cl)-c1cc(=O)c(C(=O)O)cn1[C@H](C(C)C)CO2 [Embodiment 12] | 7.72 | 7.59 | 
C=C1[C@H](CO)[C@@H](O)C[C@@H]1n1cnc2c(=O)[nH]c(N)nc21 [Entecavir] |  |  | Log HBsAg (IU/mL) (Ave. value) (HBV [2]; dosing time day 1, 0.1 mg/kg QD gavage): 3.66 IU/mL; Log HBsAg (IU/mL) (Ave. value) (HBV [2]; dosing time day 3, 0.1 mg/kg QD gavage): 4.32 IU/mL; Log HBsAg (IU/mL) (Ave. value) (HBV [2]; dosing time day 5, 0.1 mg/kg QD gavage): 4.01 IU/mL; Log HBsAg (IU/mL) (Ave. value) (HBV [2]; dosing time day 7, 0.1 mg/kg QD gavage): 2.46 IU/mL
COCCCOc1cc2c(cc1Cl)-c1cc(=O)c(C(=O)O)cn1[C@H](C1CCCC1)CO2 [Embodiment 4] | 7.95 | 7.18 | 
CC(=O)CCCOc1cc2c(cc1Cl)-c1cc(=O)c(C(=O)O)cn1[C@H](C(C)C)CO2 [Embodiment 22] | 7.95 | 7.94 | 
COCCCOc1cc2c(cc1Cl)-c1cc(=O)c(C(=O)O)cn1[C@H](C(C)C)CO2 [Embodiment 2] | 8.06 | 8.18 | 
CO/N=C/CCOc1cc2c(cc1Cl)-c1cc(=O)c(C(=O)O)cn1[C@H](C(C)C)CO2 [Embodiment 10] | 8.44 | 8.30 | 
CC(C)COc1cc2c(cc1Cl)-c1cc(=O)c(C(=O)O)cn1[C@H](C(C)C)CO2 [Embodiment 16] | 7.94 | 8.01 | 
CC(C)[C@@H]1COc2cc(OCC3CCOCC3)c(Cl)cc2-c2cc(=O)c(C(=O)O)cn21 [Embodiment 17] | 8.32 | 8.30 | 
COCCCOc1cc2c(cc1Cl)-c1cc(=O)c(C(=O)O)cn1[C@H](C1CC1)CO2 [Embodiment 3] | 6.98 | 7.18 | 
CC(C)[C@@H]1COc2cc(OCCCOC(F)(F)F)c(Cl)cc2-c2cc(=O)c(C(=O)O)cn21 [Embodiment 21] | 7.63 | 7.59 | 
CC[C@@H](C)C1COc2cc(OCCCOC)c(Cl)cc2-c2cc(=O)c(C(=O)O)cn21 (stereo partly drawn) [Embodiment 5] | 7.67 | 7.54 | 
COCCCCOc1cc2c(cc1Cl)-c1cc(=O)c(C(=O)O)cn1[C@H](C(C)C)CO2 [Embodiment 19] | 7.93 | 8.09 | 
CC[C@@H]1COc2cc(OCCCOC)c(Cl)cc2-c2cc(=O)c(C(=O)O)cn21 [Embodiment 1] | 7.35 | 7.33 | 
COCCOc1cc2c(cc1Cl)-c1cc(=O)c(C(=O)O)cn1[C@H](C(C)C)CO2 [Embodiment 18] | 7.46 | 7.46 | 
CC(C)[C@@H]1COc2cc(OCCCN3CCOC3=O)c(Cl)cc2-c2cc(=O)c(C(=O)O)cn21 [Embodiment 20] | 7.35 | 7.38 | 
COCCCOc1cc2c(cc1C)-c1cc(=O)c(C(=O)O)cn1[C@H](C(C)(C)C)CO2 [Embodiment 27] | 8.96 | 8.60 | 
COC(=O)NCCCOc1cc2c(cc1Cl)-c1cc(=O)c(C(=O)O)cn1[C@H](C(C)C)CO2 [Embodiment 23] | 7.62 | 7.47 | 
CC(C)[C@@H]1COc2cc(OCC3CC3)c(Cl)cc2-c2cc(=O)c(C(=O)O)cn21 [Embodiment 15] | 8.06 | 7.98 | 
CCSCCOc1cc2c(cc1Cl)-c1cc(=O)c(C(=O)O)cn1[C@H](C(C)C)CO2 [Embodiment 7] | 7.45 | 7.22 | 
CC(C)[C@@H]1COc2cc(OCCOCC(F)(F)F)c(Cl)cc2-c2cc(=O)c(C(=O)O)cn21 [Embodiment 13] | 7.62 | 7.36 | 
COc1cc2c(cc1Cl)-c1cc(=O)c(C(=O)O)cn1[C@H](C(C)C)CO2 [Embodiment 14] | 7.63 | 7.64 | 
